This experiment relates to HUVECs. Put plainly: Syntenin-1 stimulation and inhibition in HUVECs (qRT-PCR). The experiment is classed as cell-based, human. The conditions noted are these: Syntenin-1 1000 ng/ml, mTORi 1 μM, cMYCi 50 μM. The procedure:
FIGS. 11A-J show Syntenin-1 reprogrammed endothelial cells display a robust inflammatory phenotype. Relative expression of Syntenin-1 (FIG. 11A) or SDC-1 (FIG. 11B) was determined by RNAseq (Lewis M J, et al. Cell reports. 2019; 28:2455-2470 e2455) in synovial tissue biopsies from RA non-responsive (Non-R)(ΔDAS28≤0.6, n=16-23) and moderate (ΔDAS28 1.2 & >0.6, n=21) and good responsive (ΔDAS28>1.2, n=35-50) patients. […] HUVECs were treated with PBS (ctrl) or Syntenin-1 (1000 ng/ml) for 6 h and transcription of IRFs (FIG. 11E), inflammatory mediators (FIG. 11F), TLRs (FIG. 11I), and pro-repair factors (FIG. 11J) were assessed by qRT-PCR (n=7-12). HUVECs were treated with PBS or Syntenin-1 (1000 ng/ml) in the presence or absence of SDC-1 Ab (SDCab; 1:100), IL-5R Ab (IL5Ra; 2 μg/ml), or PDZli (PDZ1; 10 μM) for 6 h before quantifying transcription levels of TNFα (FIG. 11G) and IL-1β (FIG. 11H), (5-7). Data are presented as mean±SEM; significant differences were determined by the Mann-Whitney test, 2way ANOVA, or one-way ANOVA. *p<0.05, **p<0.01, ***p<0.001, ****p<0.0001. […]
Syntenin-1 stimulation and inhibition. […] Cells were subsequently harvested in TRIzol reagent (Life Technologies) or RIPA buffer (Cell Signaling Technology) for mRNA quantification and western blot analysis; conditioned media was collected for ELISA.
Quantitative Real-Time PCR. […]

Each structure is given as a SMILES string.

With `CO[C@H]1C[C@@H]2CC[C@@H](C)[C@@](O)(O2)C(=O)C(=O)N2CCCC[C@H]2C(=O)O[C@H]([C@H](C)C[C@@H]2CC[C@@H](OCCO)[C@H](OC)C2)CC(=O)[C@H](C)/C=C(\C)[C@@H](O)[C@@H](OC)C(=O)[C@H](C)C[C@H](C)/C=C/C=C/C=C/1C` [mTORi, Everolimus], the “TNF expression in Syntenin-1-reconfigured endothelial cells” value (HIF1αi 2 μM, FIG. 13H) is reported as “diminished”. Further, under “FIG. 13E”, the “Syntenin-1-elevated HIF1α expression levels” value is given as “dysregulated”.

For the origin of these results see patent publication US20260184807A1, “Methods for Treating Rheumatoid Arthritis Using a Syndecan-1 Inhibitor or Syntenin-1 Inhibitor” (The United States Government as represented by the …, priority 2022, published 2026).
